The target in series [1] is T1, SARS-CoV-2 nsp14 (Severe acute respiratory syndrome coronavirus 2, UniProt P0DTD1). The series is described as follows: Nsp14 RapidFire MS high-throughput screening assay. In kind it is biochemical.
The target in another series is nsp14 N7-MTase. The note with it: read-out: IC50 nsp14 N7-MTase activity; cited from earlier work.
The subject of the next series is SAR-CoV. The note with it: cited from earlier work.
Series [2] deals with human homolog RNA RNMT (RNMT:RAM) (Homo sapiens, UniProt O43148). The series is described as follows: RNMT assay under similar conditions to the nsp14 RapidFire assay. It is filed as biochemical.
In series [3] the target is T1, SARS-CoV-2 nsp14. Nature of the series: biochemical. In kind it is biochemical.
A further series has as its system SARS-CoV-2. Particulars: read-out: EC50 blocking SARS-CoV-2 in vitro infections; cited from earlier work.
The conditions of series [4]: humans; with minimal gastrointestinal side effects; cited from earlier work.
The conditions of series [5]: hydrolysis to the active metabolite tizoxanide; cited from earlier work.

Results on six molecules are retold here after article PMC7967019 (Slas Discovery, 2022).

human homolog RNA RNMT (RNMT:RAM), sequence (O43148 whole entry): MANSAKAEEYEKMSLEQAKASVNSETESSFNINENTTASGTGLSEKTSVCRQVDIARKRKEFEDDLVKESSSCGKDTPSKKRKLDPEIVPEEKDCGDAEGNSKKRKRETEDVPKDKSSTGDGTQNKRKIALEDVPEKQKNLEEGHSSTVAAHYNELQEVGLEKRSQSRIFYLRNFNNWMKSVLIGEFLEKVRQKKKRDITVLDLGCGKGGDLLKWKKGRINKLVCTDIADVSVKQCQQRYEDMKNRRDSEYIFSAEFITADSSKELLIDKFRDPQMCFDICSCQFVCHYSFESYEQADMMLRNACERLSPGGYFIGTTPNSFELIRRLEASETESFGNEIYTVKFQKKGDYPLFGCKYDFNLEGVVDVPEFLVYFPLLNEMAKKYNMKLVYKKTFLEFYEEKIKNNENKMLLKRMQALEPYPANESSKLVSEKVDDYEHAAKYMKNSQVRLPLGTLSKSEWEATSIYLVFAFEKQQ
human homolog RNA RNMT (RNMT:RAM), sequence (Q9BTL3 1-90 partner limits assumed): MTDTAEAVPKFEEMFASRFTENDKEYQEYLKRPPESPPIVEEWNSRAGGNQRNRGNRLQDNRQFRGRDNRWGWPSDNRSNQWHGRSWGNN

For the molecule `O=C1C=CC(=O)N1c1cccc(F)c1` [N-(3-fluorophenyl)maleimide], the “percentage effect on nsp14 activity” value at SARS-CoV-2 nsp14 [1] (single concentration of 10 µM) is “greater than 50%”.

As a reminder, the IC50 is the concentration that inhibits the measured activity by half. Take `Nc1ncnc2c1ncn2[C@@H]1O[C@H](CSCC[C@H](N)C(=O)O)[C@@H](O)[C@H]1O` [S-adenosyl-L-homocysteine]: the IC50 on nsp14 N7-MTase is 16 µM.

For the molecule `O=C(O)C1=CC(=C(c2ccc(O)c(C(=O)O)c2)c2ccc(O)c(C(=O)O)c2)C=CC1=O` [aurintricarboxylic acid], the IC50 on nsp14 N7-MTase is 6.4 µM. For the same molecule, the “effect on SAR-CoV replication in infected cells” value in the series on SAR-CoV is “limit SAR-CoV replication in infected cells”.

`O=c1c(O)c(-c2ccc(O)cc2)oc2cc(O)cc(O)c12` [kaempferol] gave an IC50 against SARS-CoV-2 nsp14 [1] of 28 µM.

In general, EC50 refers to the concentration that produces a half-maximal response. For `CC(=O)Oc1ccccc1C(=O)Nc1ncc([N+](=O)[O-])s1` [nitazoxanide], the Emax at 100 µM at SARS-CoV-2 nsp14 [1] (read-out: maximal effect, dose response, top concentration 100 µM) stood at 89.7%. The molecule also yielded an IC50 in series [2] above 100 µM. Moreover, at SARS-CoV-2 nsp14 [3], the IC50 was 132 µM and the “inhibition of N7-guanosine cap methylation” value was “Forty-nine”. Further, the “shift in activity between cap MTase assay and primary biochemical assay” value on SARS-CoV-2 nsp14 [3] (orthogonal versus RapidFire assay) is 10 fold. In addition, the EC50 with SARS-CoV-2 is 2.12 µM. The tolerated single dose entry in series [4] is “up to 4 g”. Further, the “metabolic fate following oral administration” value in series [5] was “rapidly hydrolyzed”.

At SARS-CoV-2 nsp14 [1], `O=C(Nc1ncc([N+](=O)[O-])s1)c1ccccc1O` [tizoxanide] came in with an IC50 of 54.8 µM.
